Values after ≈ are worked out from the molar mass of the structure shown.
Key:
[1] = molecular target: T1, P2Y purinoceptor 14 (Homo sapiens) (UniProt Q15391)
T1 sequence (whole entry): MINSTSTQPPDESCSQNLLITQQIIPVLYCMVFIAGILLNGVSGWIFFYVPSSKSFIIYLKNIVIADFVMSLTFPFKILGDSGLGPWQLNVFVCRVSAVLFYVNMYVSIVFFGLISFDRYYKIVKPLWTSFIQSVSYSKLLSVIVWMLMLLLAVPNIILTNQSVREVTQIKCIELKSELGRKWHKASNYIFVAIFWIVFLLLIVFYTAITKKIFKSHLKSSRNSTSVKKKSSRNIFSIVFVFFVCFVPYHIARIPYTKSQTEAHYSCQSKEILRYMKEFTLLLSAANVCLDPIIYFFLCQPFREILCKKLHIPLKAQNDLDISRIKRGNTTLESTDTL
Description: Antagonist activity at P2Y14R (unknown origin) stably expressed in HEK293 cells assessed as inhibition of forskolin-induced cAMP production at 100 nM by cAMP-Glo assay relative to control

[2] = molecular target: T2, P2Y purinoceptor 14 (Homo sapiens, UniProt Q15391); assay: Antagonist activity at P2Y14R (unknown origin) stably expressed in HEK293 cells assessed as inhibition of forskolin-induced cAMP production by cAMP-Glo assay; format: functional, cell-based
T2 sequence (Q15391 whole entry): T1 sequence (whole entry)

[3] = Aqueous solubility of compound in SGF at pH 1.2 by spectrometry; format: ADME
[4] = Aqueous solubility of compound in SIF at pH 6.8 by spectrometry; format: ADME; settings: simulated gi fluid
[5] = Aqueous solubility of compound in double distilled water at pH 7 by spectrometry; format: physicochemical; settings: buffer
[6] = Aqueous solubility of compound in PBS at pH 7.4 by spectrometry; format: physicochemical; settings: buffer
[7] = molecular target: P2Y purinoceptor 4 (Homo sapiens, UniProt P51582); assay: Inhibition of P2Y4R (unknown origin) expressed in HEK293 cells assessed as decrease in IP3 production; format: functional, cell-based
Sequence of P2Y purinoceptor 4 (P51582 whole entry): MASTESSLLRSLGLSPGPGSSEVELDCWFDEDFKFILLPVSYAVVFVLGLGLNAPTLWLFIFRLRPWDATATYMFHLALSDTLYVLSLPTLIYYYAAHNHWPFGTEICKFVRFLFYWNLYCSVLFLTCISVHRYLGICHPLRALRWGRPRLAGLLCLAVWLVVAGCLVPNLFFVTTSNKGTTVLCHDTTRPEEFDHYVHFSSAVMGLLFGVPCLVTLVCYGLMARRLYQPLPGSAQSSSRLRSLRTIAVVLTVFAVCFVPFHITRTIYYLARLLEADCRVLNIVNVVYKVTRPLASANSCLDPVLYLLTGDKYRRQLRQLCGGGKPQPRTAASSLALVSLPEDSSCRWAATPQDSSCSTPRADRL

[8] = Metabolic stability in human liver microsomes measured for 90 mins; format: ADME, Microsome; settings: 1.5 h
[9] = molecular target: P2Y purinoceptor 12 (Homo sapiens, UniProt Q9H244); assay: Inhibition of P2Y12R (unknown origin) expressed in HEK293 cells assessed as restoration of cAMP reduction; format: functional, cell-based
Sequence of P2Y purinoceptor 12 (Q9H244 whole entry): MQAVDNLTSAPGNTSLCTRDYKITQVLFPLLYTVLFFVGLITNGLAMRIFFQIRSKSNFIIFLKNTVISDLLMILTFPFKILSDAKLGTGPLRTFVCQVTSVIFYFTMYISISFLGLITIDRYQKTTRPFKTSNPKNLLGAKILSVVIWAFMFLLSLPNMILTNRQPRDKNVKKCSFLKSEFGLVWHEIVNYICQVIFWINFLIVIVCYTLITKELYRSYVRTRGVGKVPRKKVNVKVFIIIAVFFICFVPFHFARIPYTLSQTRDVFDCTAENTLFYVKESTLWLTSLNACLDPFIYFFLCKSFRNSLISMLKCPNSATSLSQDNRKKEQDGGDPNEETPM

[10] = molecular target: P2Y purinoceptor 6 (Homo sapiens, UniProt Q15077); assay: Inhibition of P2Y6R (unknown origin) expressed in HEK293 cells assessed as decrease in IP3 reduction
Sequence of P2Y purinoceptor 6 (Q15077 whole entry): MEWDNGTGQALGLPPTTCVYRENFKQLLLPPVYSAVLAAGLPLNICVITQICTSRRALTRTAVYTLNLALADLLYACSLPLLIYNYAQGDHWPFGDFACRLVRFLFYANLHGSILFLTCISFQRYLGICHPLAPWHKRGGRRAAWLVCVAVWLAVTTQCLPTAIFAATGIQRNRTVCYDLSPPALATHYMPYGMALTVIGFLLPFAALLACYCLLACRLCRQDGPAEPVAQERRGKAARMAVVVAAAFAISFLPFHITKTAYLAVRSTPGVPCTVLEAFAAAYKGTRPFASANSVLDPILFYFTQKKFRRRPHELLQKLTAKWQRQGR

[11] = HEK293, filed as antagonist, dose 100.0 nM

Cc1ccc(Oc2sc(C(=O)O)cc2NC(=O)c2cnn(C)c2)cn1
inhibition [1, 11]: 42.8%

Cc1ccc(C(=O)Nc2cc(C(=O)O)sc2Oc2ccccc2F)cc1
IC50 [2]: 104 nM | inhibition [1, 11]: 66%

Cc1ccc(C(=O)Nc2cc(C(=O)O)sc2Oc2ccc(Cl)cc2)cc1
inhibition ([1]; HEK293, dose 100.0 nM): 39.9%

Cc1ccc(C(=O)Nc2cc(C(=O)O)sc2Oc2ccc(C)cn2)cc1
IC50 [2]: 0.55 nM | solubility ([3]; SGF, read-out: solubility): 0.03 µg/mL (≈ 0.0814 µM) | solubility [4]: 0.109 µg/mL (≈ 0.296 µM) | solubility [5]: 0.039 µg/mL (≈ 0.106 µM) | solubility [6]: 1.7 µg/mL (≈ 4.61 µM) | inhibition [1, 11]: 90.6%

Cc1ccc(C(=O)Nc2cc(C(=O)O)sc2Oc2cccc(C(F)(F)F)c2)cc1
inhibition [1, 11]: 52.8%

O=C(C1CC1)N1CCc2cc(Br)c(S(=O)(=O)Nc3ccc(C(F)(F)F)c(Cl)c3)cc21
IC50 [7]: 13000 nM

Cc1ccc(C(=O)Nc2cc(C(=O)O)sc2Oc2ccccc2C)cc1
inhibition [1, 11]: 45.8%

Cc1ccc(C(=O)Nc2cc(C(=O)O)sc2Oc2ccsn2)cc1
inhibition [1, 11]: 60.3%

Cc1ccc(C(=O)Nc2cc(C(=O)O)sc2Oc2ccccc2C(F)(F)F)cc1
inhibition [1, 11]: 57.1%

Cc1ccc(Oc2sc(C(=O)O)cc2NC(=O)c2ccc(C)nc2)cn1
inhibition ([1]; HEK293, dose 100.0 nM): 30.3%

Cc1ccc(Oc2sc(C(=O)O)cc2NC(=O)c2ccc(N(C)C)cc2)cn1
inhibition [1, 11]: 40.8%

Cc1ccc(C(=O)Nc2cc(C(=O)O)sc2Oc2ccc(F)nc2)cc1
IC50 [2]: 17.6 nM | solubility ([3]; SGF, read-out: solubility): 0.036 µg/mL (≈ 0.0967 µM) | solubility [4]: 1.202 µg/mL (≈ 3.23 µM) | solubility [5]: 0.041 µg/mL (≈ 0.11 µM) | solubility [6]: 3.253 µg/mL (≈ 8.74 µM) | inhibition [1, 11]: 83.4%

Cc1ccc(C(=O)Nc2cc(C(=O)O)sc2Oc2ccc(C#N)cc2)cc1
inhibition ([1]; HEK293, dose 100.0 nM): 16.2%

C#Cc1ccc(C(=O)Nc2cc(C(=O)O)sc2Oc2ccc(C)nc2)cc1
IC50 [2]: 7.51 nM | inhibition [1, 11]: 116%

Cc1ccc(Oc2sc(C(=O)O)cc2NC(=O)c2ccc(Cl)cc2)cn1
inhibition ([1]; HEK293, dose 100.0 nM): 21%

Cc1ccc(Oc2sc(C(=O)O)cc2NC(=O)c2ccc(C(C)(C)C)cc2)cn1
inhibition ([1]; HEK293, dose 100.0 nM): 12.2%

Cc1ccc(Oc2sc(C(=O)O)cc2NC(=O)c2ccc(C#N)cc2)cn1
inhibition ([1]; HEK293, dose 100.0 nM): 33%

Cc1ccc(C(=O)Nc2cc(C(=O)O)cc(-c3ccoc3)c2)cc1
solubility ([3]; simulated gi fluid): 0.069 µg/mL (≈ 0.215 µM) | solubility [4]: 0.471 µg/mL (≈ 1.47 µM) | solubility [5]: 0.078 µg/mL (≈ 0.243 µM) | solubility [6]: 0.878 µg/mL (≈ 2.73 µM)

Cc1ccc(Oc2sc(C(=O)O)cc2NC(=O)c2ccc(F)cc2)cn1
inhibition [1, 11]: 46.6%

Cc1ccc(C(=O)Nc2cc(C(=O)O)sc2Oc2ccc(S(C)(=O)=O)cc2)cc1
inhibition [1, 11]: 62.8%

COc1ccccc1Oc1sc(C(=O)O)cc1NC(=O)c1ccc(C)cc1
inhibition [1, 11]: 48.1%

CCCc1ccc(C(=O)Nc2cc(C(=O)O)sc2Oc2ccc(C)nc2)cc1
inhibition [1, 11]: 44.3%

Cc1ccc(C(=O)Nc2cc(C(=O)O)sc2Oc2ccccn2)cc1
IC50 [2]: 1690 nM | inhibition [1, 11]: 74.9%

COc1ccc(Oc2sc(C(=O)O)cc2NC(=O)c2ccc(C)cc2)cc1
IC50 [2]: 24500 nM | inhibition [1, 11]: 69.8%

Cc1ccc(C(=O)Nc2cc(C(=O)O)sc2Oc2ccc(C(=O)O)cc2)cc1
inhibition [1, 11]: 44.1%

Cc1ccc(C(=O)Nc2cc(C(=O)O)sc2Oc2ccc(F)cc2)cc1
IC50 [2]: 60.6 nM | inhibition [1, 11]: 74.8%

CC(=O)Nc1ccc(Oc2sc(C(=O)O)cc2NC(=O)c2ccc(C)cc2)cc1
IC50 [2]: 18600 nM | inhibition [1, 11]: 66%

Cc1ccc(Sc2sc(C(=O)O)cc2NC(=O)c2ccc(C)cc2)cc1
IC50 [2]: 6.53 nM | inhibition [1, 11]: 88.4%

Cc1ccc(C(=O)Nc2cc(C(=O)O)sc2Oc2cccc(C)c2)cc1
inhibition [1, 11]: 55.8%

Cc1ccc(Oc2sc(C(=O)O)cc2NC(=O)c2cnc(C)cn2)cn1
IC50 [2]: 1060 nM | inhibition [1, 11]: 71%

Cc1ccc(C(=O)Nc2cc(C(=O)O)sc2Oc2ccc(C)nc2)nc1
inhibition [1, 11]: 60.1%

Cc1ccc(C(=O)Nc2cc(C(=O)O)sc2Oc2ccc(C)nc2)cc1
IC50 [2]: 6.53 nM | solubility ([3]; SGF, read-out: solubility): 0.844 µg/mL (≈ 2.29 µM) | solubility [4]: 0.189 µg/mL (≈ 0.513 µM) | solubility [5]: 0.067 µg/mL (≈ 0.182 µM) | solubility [6]: 2.37 µg/mL (≈ 6.43 µM) | inhibition [1, 11]: 99.4%

COc1ccc(C(=O)Nc2cc(C(=O)O)sc2Oc2ccc(C)nc2)cc1
IC50 [2]: 1.29 nM | solubility ([3]; SGF, read-out: solubility): 2.26 µg/mL (≈ 5.88 µM) | solubility [4]: 0.423 µg/mL (≈ 1.1 µM) | solubility [5]: 0.063 µg/mL (≈ 0.164 µM) | solubility [6]: 2.33 µg/mL (≈ 6.06 µM) | Stability [8]: Stable | inhibition [1, 11]: 112%

O=C(CCCNC(=S)Nc1ccc2c(c1)C(=O)OC21c2ccc(O)cc2Oc2cc(O)ccc21)NCCCC(=O)N1CCC(c2ccc(-c3cc(C(=O)O)cc4cc(-c5ccc(C(F)(F)F)cc5)ccc34)cc2)CC1
IC50 [2]: 1.52 nM

Cc1ccc(C(=O)Nc2cc(C(=O)O)sc2Oc2ccncc2)cc1
inhibition [1, 11]: 43.5%

CCCc1ccc(Oc2sc(C(=O)O)cc2NC(=O)c2ccc(C)cc2)cc1
IC50 [2]: 124 nM | inhibition [1, 11]: 66.3%

Cc1ccc(C(=O)Nc2cc(C(=O)O)sc2Oc2cccc(Cl)c2)cc1
inhibition ([1]; HEK293, dose 100.0 nM): 36.2%

O=C(O)c1cc(-c2ccc(C3CCNCC3)cc2)c2ccc(-c3ccc(C(F)(F)F)cc3)cc2c1 [PPTN]
solubility ([3]; SGF, read-out: solubility): < 0.005 µg/mL | solubility [4]: < 0.005 µg/mL | solubility [5]: < 0.005 µg/mL | solubility [6]: < 0.005 µg/mL

Cc1ccc(Oc2sc(C(=O)O)cc2NC(=O)c2ccc(C)cc2)cc1
IC50 [2]: 4.01 nM | inhibition [1, 11]: 97.4%

Cc1ccc(C(=O)Nc2cc(C(=O)O)nn2Cc2ccc(F)cc2)cc1
solubility ([3]; simulated gi fluid): 0.085 µg/mL (≈ 0.241 µM) | solubility [4]: 0.203 µg/mL (≈ 0.574 µM) | solubility [5]: 0.088 µg/mL (≈ 0.249 µM) | solubility [6]: 0.318 µg/mL (≈ 0.9 µM)

CCCSc1nc(N[C@@H]2C[C@H]2c2ccc(F)c(F)c2)c2nnn([C@@H]3C[C@H](OCCO)[C@@H](O)[C@H]3O)c2n1 [TICAGRELOR]
IC50 [9]: 1280 nM

COc1cccc(Oc2sc(C(=O)O)cc2NC(=O)c2ccc(C)cc2)c1
inhibition [1, 11]: 63.2%

Cc1ccc(C(=O)Nc2cc(C(=O)O)sc2Oc2ccc(C(C)(C)C)cc2)cc1
inhibition [1, 11]: 54.4%

Cc1ccc(C(=O)Nc2cc(C(=O)O)sc2Oc2ccc(C(F)(F)F)cc2)cc1
inhibition [1, 11]: 62.6%

Cc1ccc(Oc2sc(C(=O)O)cc2NC(=O)c2ccccc2)cn1
IC50 [2]: 13 nM | inhibition [1, 11]: 81.9%

CCc1ccc(C(=O)Nc2cc(C(=O)O)sc2Oc2ccc(C)nc2)cc1
inhibition [1, 11]: 59.8%

Cc1ccc(C(=O)Nc2cc(C(=O)O)sc2Oc2ccc(OC(F)(F)F)cc2)cc1
inhibition ([1]; HEK293, dose 100.0 nM): 32.7%

Cc1ccc(Oc2sc(C(=O)O)cc2NC(=O)c2cnc(C)nc2)cn1
IC50 [2]: 3130 nM | inhibition [1, 11]: 83.9%

Cc1ccc(C(=O)Nc2cc(C(=O)O)sc2Oc2cccc(F)c2)cc1
IC50 [2]: 87.7 nM | inhibition [1, 11]: 69.6%

S=C=Nc1cccc(NC(=S)NCCCCNC(=S)Nc2cccc(N=C=S)c2)c1
IC50 [10]: 23.4 nM

Cc1ccc(C(=O)Nc2cc(C(=O)O)sc2Oc2ccccc2Cl)cc1
inhibition [1, 11]: 40.4%

Cc1ccc(Oc2sc(C(=O)O)cc2NC(=O)c2ccc(C(C)C)cc2)cn1
inhibition [1, 11]: 44.3%

Cc1ccc(C(=O)Nc2cc(C(=O)O)sc2Oc2cccnc2)cc1
inhibition [1, 11]: 62%

Cc1ccc(Nc2sc(C(=O)O)cc2NC(=O)c2ccc(C)cc2)cc1
inhibition [1, 11]: 41.7%

Cc1ccc(C(=O)Nc2cc(C(=O)O)sc2Oc2ccc(C(C)C)cc2)cc1
inhibition [1, 11]: 54.3%

CC(=O)c1ccc(Oc2sc(C(=O)O)cc2NC(=O)c2ccc(C)cc2)cc1
inhibition ([1]; HEK293, dose 100.0 nM): 34.5%

CCc1ccc(Oc2sc(C(=O)O)cc2NC(=O)c2ccc(C)cc2)cc1
IC50 [2]: 81.3 nM | inhibition [1, 11]: 67.4%

Cc1ccc(Oc2sc(C(=O)O)cc2NC(=O)c2ccc(C(F)(F)F)cc2)cn1
inhibition ([1]; HEK293, dose 100.0 nM): 39.7%

Cc1ccc(C(=O)Nc2cc(C(=O)O)sc2Oc2ccccc2)cc1
inhibition [1, 11]: 42.3%

Reference: ChEMBL document CHEMBL5523735 (J Med Chem, 2024)
